Patent US4845215A, “Purine derivative” (Nippon Kayaku Kabushiki Kaisha, priority 1987, dated 1989)

Legend:
[1] = test system: Herpes Simplex virus type-II; test: Antiviral activity by CPE (cytopathic effect) of Herpes Simplex virus type-II on Vevo cell; format: cell-based; conditions: read-out: Inhibition rate (%)
Experimental: (a) Its antiviral activity was measured by observing CPE (cytopathic effect) of Herpes Simplex virus type-II on the Vevo cell originated from the kidney of Cercopithecus aetiops.

[2] = test system: Human Immunodeficiency Virus (HIV); test: Anti-HIV activity: development of virus antigen in MT-4 cell (fluorescent antibody technique); format: cell-based; conditions: for Development of virus antigen (%): 4 days, DMSO only 80 to 90%
Experimental: (b) Anti-"Human Immunodeficiency Virus (HIV)" activity.
(§1) About 100,000 cells/ml of MT-4 cell was introduced into a tray having 24 holes. Further, 100 microliters of a solution containing a predetermined quantity of the compound of the present invention was added, and then it was cultured in a 5% (v/v) carbon dioxide gas incubator at 37° C. for 5 hours. Subsequently, 10^3 to 10^4 infection units of HIV was added and cultured for 4 days. Then, a part of the culture fluid was applied to a slide glass and immobilized with acetone, and development of virus antigen was examined by the fluorescent antibody technique.
A serum of an AIDS patient was used as the primary antibody of the fluorescent antibody technique, and FITC-labelled anti-human IgG was used as its secondary antibody.
The compound of the present invention was used in the form of a solution
in DMSO. In DMSO itself only, development of virus antigen was 80 to 90%.

MT-4 cell = test: Cytopathic effect on MT-4 cell without virus (microscopy); format: cell-based; conditions: summary in words
Experimental: as §1, with “technique. Cytopathic effect of the compound of the invention on MT-4 cell was examined microscopically without adding virus.” for “technique.”

[3] = test system: T Lymphocyte (spleen cell of BALB/C mouse); test: Inhibition of Blastogenesis Reaction of T Lymphocyte by Con A (3H-thymidine take-up); format: cell-based; conditions: Con A 5 micrograms/liter, 37° C., 72 hours
Experimental: Inhibition of Blastogenesis Reaction of T Lymphocyte by Con A.
Spleen cell of BALB/C mouse was dividingly poured into a microplate so that the number of cells came to 2×10^5 /0.2 ml/well. To each of all the wells other than control group was added the compound of the present invention having varied concentration. Further, 5 […] of Con A was added to all the wells. Then, the cell suspensions were cultured at 37° C. for 72 hours in 5% carbon dioxide gas incubator. The blastogenesis reaction of lymphocyte was examined by adding 1μCi/well of ^3 H-thymidine 6 hours before the completion of the culture and measuring its take-up into cultured cells by means of liquid scintillation counter. If the take-up count at the time when only Con A was added was expressed by Adpm and the take-up count at the time when Con A and drug were added was expressed by Bdpm, (1 - Bdpm/Adpm)×100 could be regarded as the inhibitory rate of each drug on blastogenesis.

[4] = Acute toxicity (LD50) on mouse; format: in vivo; conditions: in vivo, iv
Experimental: (§2) (3) The acute toxicity (LD50) of the compound of formula (1) on mouse was 200 mg/kg (iv) or above which is weaker than the toxicities of various known nucleic acid type antibiotics.

mouse = test: Acute toxicity (LD50) on mouse; format: in vivo; conditions: iv
Experimental: as §2

[5] = Solubilities into solvents; format: physicochemical
Excerpt: (8) Solubilities into solvents

Work on `O=c1[nH]cnc2c1ncn2[C@@H]1O[C@H](CO)[C@H]1CO` [compound of formula (1), 9-[(2'R,3'R,4'S)-3',4'-bis-(hydroxymethyl)-2'-oxetanyl]-hypoxanthine] yielded an inhibition at 31.3 µg/disc ([1]; 31.3 mcg/well) of 8%, an inhibition at 62.5 µg/disc ([1]; 62.5 mcg/well) of 33% and an inhibition at 125 µg/disc ([1]; 125 mcg/well) of 75%. The “Development of virus antigen (%)” value ([2]; 1 μg/ml) was 40%, the “Development of virus antigen (%)” value ([2]; 10 μg/ml) was 10% and the “Development of virus antigen (%)” value ([2]; 100 μg/ml) was 2%. For the same compound, the “growth-inhibitory action of HIV” value ([2]; summary in words) was “marked”, the “cytopathic effect (summary)” value (MT-4 cell) was “small” and the IC50 [3] was 14.5 µg/mL. For the same compound, the LD50 [4] was at least 200 mg/kg, the “acute toxicity compared with various known nucleic acid type antibiotics” value (mouse) was “weaker” and the Solubility ([5]; acetone) was “insoluble or only slightly soluble”. The Solubility ([5]; benzene) was “insoluble or only slightly soluble”, the Solubility ([5]; dimethyl sulfoxide) was “soluble” and the Solubility ([5]; ether) was “insoluble or only slightly soluble”. The Solubility ([5]; ethyl acetate) was “insoluble or only slightly soluble”, the Solubility ([5]; methanol) was “soluble” and the Solubility ([5]; propanol) was “insoluble or only slightly soluble”. For the same compound, the Solubility ([5]; water) was “soluble”.
